{
  "source": "patent US11492588B2",
  "about": "“Lactococcus lactis subsp. lactis CCFM1018 and application thereof in preparation of food and medicine for excreting plasticizer” (priority 2018, dated 2022)",
  "origin": "cited, not measured here",
  "conditions": "human body",
  "data": [
    {"smiles": "CCCCC(CC)COC(=O)c1ccccc1C(=O)OCC(CC)CCCC", "note": "(stereo not shown) [DEHP, di(2-ethylhexyl) phthalate]", "values": [
      {"measurement": "Absorption and distribution period", "value": "4 to 8", "unit": "h"},
      {"measurement": "Time within which most of the DEHP is completely metabolized", "value": "≤ 24", "unit": "h"},
      {"measurement": "Share converted into five secondary metabolites and excreted in urine", "setting": "24 h after entry", "value": "about 67%"},
      {"measurement": "Share directly excreted in urine", "setting": "24 h after entry", "value": "less than 10%"}
    ]}
  ]
}
